Experimental data from the supplement of paper PMC10307832.

Experiments:
Assay in all cases: relative viability (nuclei count vs DMSO), 5 days (fraction); higher = more cells survive
RERF-LC-KJ = test system: RERF-LC-KJ
Outline: (§1)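 After 5 days of treatment, lung cancer cells in 1536-well plates were fixed and stained in a single step (final 0.05% Triton X-100, 1% formaldehyde, 1 ug/ml Hoechst) and their nuclei counted on 4× images. Treatment had been applied by pin tool the day after seeding as one drug alone or as a fixed anchor-drug dose with five library-drug doses (not always all listed) in √10 steps. Relative viability is the nuclei count of treated wells divided by that of vehicle wells, and values are medians of duplicate plates.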

NCI-H1915 = test system: NCI-H1915
Outline: as §1

ChaGo-K-1 = test system: ChaGo-K-1
Outline: as §1

NCI-H1666 = test system: NCI-H1666
Outline: as §1

LC-2-ad = test system: LC-2-ad
Outline: as §1

PC-14 = test system: PC-14
Outline: as §1

NCI-H647 = test system: NCI-H647
Outline: as §1

NCI-H23 = test system: NCI-H23
Outline: as §1

HCC-78 = test system: HCC-78
Outline: as §1

NCI-H2405 = test system: NCI-H2405
Outline: as §1

NCI-H2087 = test system: NCI-H2087
Outline: as §1

NCI-H520 = test system: NCI-H520
Outline: as §1

HCC-827 = test system: HCC-827
Outline: as §1

EPLC-272H = test system: EPLC-272H
Outline: as §1

LCLC-97TM1 = test system: LCLC-97TM1
Outline: as §1

NCI-H322M = test system: NCI-H322M
Outline: as §1

COR-L 105 = test system: COR-L 105
Outline: as §1

H3255 = test system: H3255
Outline: as §1

NCI-H2126 = test system: NCI-H2126
Outline: as §1

201T = test system: 201T
Outline: as §1

NCI-H2347 = test system: NCI-H2347
Outline: as §1

NC(=O)Nc1cc(-c2cccc(F)c2)sc1C(=O)N[C@H]1CCCNC1 [AZD7762] + CC1(C)CCC(c2ccc(Cl)cc2)=C(CN2CCN(c3ccc(C(=O)NS(=O)(=O)c4ccc(N[C@H](CCN5CCOCC5)CSc5ccccc5)c(S(=O)(=O)C(F)(F)F)c4)cc3)CC2)C1 [Navitoclax] (partner 0.5 µM)
relative viability (RERF-LC-KJ; first compound 0.01 µM): 1.15 | relative viability (RERF-LC-KJ; first compound 0.03162 µM): 0.913 | relative viability (RERF-LC-KJ; first compound 0.1 µM): 1.12 | relative viability (RERF-LC-KJ; first compound 0.3162 µM): 1.21 | relative viability (RERF-LC-KJ; first compound 1 µM): 0.878 | relative viability (NCI-H1915; first compound 0.01 µM): 0.783 | relative viability (NCI-H1915; first compound 0.03162 µM): 0.78 | relative viability (NCI-H1915; first compound 0.1 µM): 0.784 | relative viability (NCI-H1915; first compound 0.3162 µM): 0.806 | relative viability (NCI-H1915; first compound 1 µM): 0.672 | relative viability (ChaGo-K-1; first compound 0.01 µM): 0.934 | relative viability (ChaGo-K-1; first compound 0.03162 µM): 1 | relative viability (ChaGo-K-1; first compound 0.1 µM): 0.913 | relative viability (ChaGo-K-1; first compound 0.3162 µM): 0.813 | relative viability (ChaGo-K-1; first compound 1 µM): 0.664 | relative viability (NCI-H1666; first compound 0.01 µM): 1.24 | relative viability (NCI-H1666; first compound 0.03162 µM): 1.36 | relative viability (NCI-H1666; first compound 0.1 µM): 1.23 | relative viability (NCI-H1666; first compound 0.3162 µM): 0.797 | relative viability (NCI-H1666; first compound 1 µM): 0.661 | relative viability (LC-2-ad; first compound 0.01 µM): 0.491 | relative viability (LC-2-ad; first compound 0.03162 µM): 0.476 | relative viability (LC-2-ad; first compound 0.1 µM): 0.415 | relative viability (LC-2-ad; first compound 0.3162 µM): 0.414 | relative viability (LC-2-ad; first compound 1 µM): 0.309 | relative viability (PC-14; first compound 0.01 µM): 1.09 | relative viability (PC-14; first compound 0.03162 µM): 1.02 | relative viability (PC-14; first compound 0.1 µM): 1.02 | relative viability (PC-14; first compound 0.3162 µM): 0.895 | relative viability (PC-14; first compound 1 µM): 0.512 | relative viability (NCI-H647; first compound 0.01 µM): 1.33 | relative viability (NCI-H647; first compound 0.03162 µM): 1.08 | relative viability (NCI-H647; first compound 0.1 µM): 0.969 | relative viability (NCI-H647; first compound 0.3162 µM): 0.858 | relative viability (NCI-H647; first compound 1 µM): 0.277 | relative viability (NCI-H23; first compound 0.01 µM): 0.983 | relative viability (NCI-H23; first compound 0.03162 µM): 0.886 | relative viability (NCI-H23; first compound 0.1 µM): 0.905 | relative viability (NCI-H23; first compound 0.3162 µM): 0.783 | relative viability (NCI-H23; first compound 1 µM): 0.464 | relative viability (HCC-78; first compound 0.01 µM): 0.822 | relative viability (HCC-78; first compound 0.03162 µM): 0.807 | relative viability (HCC-78; first compound 0.1 µM): 0.792 | relative viability (HCC-78; first compound 0.3162 µM): 0.714 | relative viability (HCC-78; first compound 1 µM): 0.401 | relative viability (NCI-H2405; first compound 0.01 µM): 0.812 | relative viability (NCI-H2405; first compound 0.03162 µM): 0.925 | relative viability (NCI-H2405; first compound 0.1 µM): 0.873 | relative viability (NCI-H2405; first compound 0.3162 µM): 0.675 | relative viability (NCI-H2405; first compound 1 µM): 0.244 | relative viability (NCI-H2087; first compound 0.01 µM): 1.13 | relative viability (NCI-H2087; first compound 0.03162 µM): 1 | relative viability (NCI-H2087; first compound 0.1 µM): 1.27 | relative viability (NCI-H2087; first compound 0.3162 µM): 1.17 | relative viability (NCI-H2087; first compound 1 µM): 1.28 | relative viability (NCI-H520; first compound 0.01 µM): 1.11 | relative viability (NCI-H520; first compound 0.03162 µM): 1.13 | relative viability (NCI-H520; first compound 0.1 µM): 1.07 | relative viability (NCI-H520; first compound 0.3162 µM): 0.595 | relative viability (NCI-H520; first compound 1 µM): 0.45 | relative viability (HCC-827; first compound 0.01 µM): 1 | relative viability (HCC-827; first compound 0.03162 µM): 0.918 | relative viability (HCC-827; first compound 0.1 µM): 0.991 | relative viability (HCC-827; first compound 0.3162 µM): 0.94 | relative viability (HCC-827; first compound 1 µM): 0.93 | relative viability (EPLC-272H; first compound 0.01 µM): 1.17 | relative viability (EPLC-272H; first compound 0.03162 µM): 1.18 | relative viability (EPLC-272H; first compound 0.1 µM): 1.15 | relative viability (EPLC-272H; first compound 0.3162 µM): 1.37 | relative viability (EPLC-272H; first compound 1 µM): 0.783 | relative viability (LCLC-97TM1; first compound 0.01 µM): 0.343 | relative viability (LCLC-97TM1; first compound 0.03162 µM): 0.517 | relative viability (LCLC-97TM1; first compound 0.1 µM): 0.51 | relative viability (LCLC-97TM1; first compound 0.3162 µM): 0.457 | relative viability (LCLC-97TM1; first compound 1 µM): 0.237 | relative viability (NCI-H322M; first compound 0.01 µM): 1.14 | relative viability (NCI-H322M; first compound 0.03162 µM): 1.33 | relative viability (NCI-H322M; first compound 0.1 µM): 1.29 | relative viability (NCI-H322M; first compound 0.3162 µM): 1.22 | relative viability (NCI-H322M; first compound 1 µM): 1.03 | relative viability (COR-L 105; first compound 0.01 µM): 0.694 | relative viability (COR-L 105; first compound 0.03162 µM): 0.768 | relative viability (COR-L 105; first compound 0.1 µM): 0.671 | relative viability (COR-L 105; first compound 0.3162 µM): 0.527 | relative viability (COR-L 105; first compound 1 µM): 0.463 | relative viability (H3255; first compound 0.01 µM): 0.51 | relative viability (H3255; first compound 0.03162 µM): 0.509 | relative viability (H3255; first compound 0.1 µM): 0.526 | relative viability (H3255; first compound 0.3162 µM): 0.524 | relative viability (H3255; first compound 1 µM): 0.448 | relative viability (NCI-H2126; first compound 0.01 µM): 0.811 | relative viability (NCI-H2126; first compound 0.03162 µM): 0.866 | relative viability (NCI-H2126; first compound 0.1 µM): 0.889 | relative viability (NCI-H2126; first compound 0.3162 µM): 0.79 | relative viability (NCI-H2126; first compound 1 µM): 0.91 | relative viability (201T; first compound 0.01 µM): 1.18 | relative viability (201T; first compound 0.03162 µM): 1.23 | relative viability (201T; first compound 0.1 µM): 1.21 | relative viability (201T; first compound 0.3162 µM): 1.25 | relative viability (201T; first compound 1 µM): 1.27 | relative viability (NCI-H2347; first compound 0.01 µM): 0.829 | relative viability (NCI-H2347; first compound 0.03162 µM): 0.934 | relative viability (NCI-H2347; first compound 0.1 µM): 0.935 | relative viability (NCI-H2347; first compound 0.3162 µM): 0.991 | relative viability (NCI-H2347; first compound 1 µM): 0.982
